Reference: ChEMBL document CHEMBL3885861, “Open TG-GATES”

Organism: Rattus norvegicus
Assay: Open TG-GATES - Regimen: Single
Type: toxicity, organism-based, Sprague-Dawley
Design: regimen Single, gender Male, age 6 weeks
Conditions: in vivo, po, 100 mg/kg, route gavage, dose level Low; for APTT / Bas / Eos / Fbg / Hb / Ht / Lym / MCH / MCHC / MCV / Mono / Neu / PT / Plat / RBC / Ret / WBC: tissue Blood; for KIDNEY_L / KIDNEY_R / KIDNEY_TOTAL: tissue Kidney; for LIVER: tissue Liver; for A/G / ALP / ALT / AST / BUN / CRE / Ca / Cl / DBIL / GLC / IP / K / LDH / Na / PL / RALB / TBIL / TC / TG / TP / gamma-GTP: tissue Plasma

CNC(=C[N+](=O)[O-])NCCSCc1ccc(CN(C)C)o1 [RANITIDINE]
TERMINAL_BW (9 h): 213.4 g | APTT (9 h): 19.1 s | Bas (9 h): 0% | Eos (9 h): 1% | Fbg (9 h): 217.2 mg/dL | Hb (9 h): 13.2 g/dL | Ht (9 h): 37.7% | Lym (9 h): 72% | MCH (9 h): 22.1 pg | MCHC (9 h): 34.9% | MCV (9 h): 63.3 fL | Mono (9 h): 2.6% | Neu (9 h): 21.8% | PT (9 h): 12.6 s | Plat (9 h): 116.5 x10_4/uL | RBC (9 h): 596.2 x10_4/ul | Ret (9 h): 7.2% | WBC (9 h): 81.2 x10_2/uL | KIDNEY_L (9 h): 1 g | KIDNEY_R (9 h): 1 g | KIDNEY_TOTAL (9 h): 1.9 g | LIVER (9 h): 8.4 g | A/G (9 h): 1.6 | ALP (9 h): 835.8 IU/L | ALT (9 h): 32.2 IU/L | AST (9 h): 68 IU/L | BUN (9 h): 10 mg/dL | CRE (9 h): 0.3 mg/dL | Ca (9 h): 10.3 mg/dL | Cl (9 h): 103.4 meq/L | DBIL (9 h): 0.062 mg/dL | GLC (9 h): 194.2 mg/dL | IP (9 h): 8.4 mg/dL | K (9 h): 3.6 meq/L | LDH (9 h): 144.4 IU/L | Na (9 h): 140.4 meq/L | PL (9 h): 132.6 mg/dL | RALB (9 h): 3.3 g/dL | TBIL (9 h): 0.1 mg/dL | TC (9 h): 78.6 mg/dL | TG (9 h): 22.2 mg/dL | TP (9 h): 5.3 g/dL | gamma-GTP (9 h): 1.4 IU/L | TERMINAL_BW (24 h): 226.3 g | APTT (24 h): 19.4 s | Bas (24 h): 0% | Eos (24 h): 1% | Fbg (24 h): 227 mg/dL | Hb (24 h): 13.9 g/dL | Ht (24 h): 39.7% | Lym (24 h): 79.2% | MCH (24 h): 22.7 pg | MCHC (24 h): 35.2% | MCV (24 h): 64.4 fL | Mono (24 h): 2.4% | Neu (24 h): 15.2% | PT (24 h): 12 s | Plat (24 h): 116.2 x10_4/uL | RBC (24 h): 617.2 x10_4/ul | Ret (24 h): 6.5% | WBC (24 h): 100.7 x10_2/uL | KIDNEY_L (24 h): 1 g | KIDNEY_R (24 h): 1 g | KIDNEY_TOTAL (24 h): 2 g | LIVER (24 h): 10.7 g | A/G (24 h): 1.5 | ALP (24 h): 931.8 IU/L | ALT (24 h): 33.8 IU/L | AST (24 h): 65.6 IU/L | BUN (24 h): 14.4 mg/dL | CRE (24 h): 0.4 mg/dL | Ca (24 h): 10.8 mg/dL | Cl (24 h): 102.2 meq/L | DBIL (24 h): 0.086 mg/dL | GLC (24 h): 196.6 mg/dL | IP (24 h): 7.6 mg/dL | K (24 h): 4 meq/L | LDH (24 h): 147.8 IU/L | Na (24 h): 140.2 meq/L | PL (24 h): 142.8 mg/dL | RALB (24 h): 3.3 g/dL | TBIL (24 h): 0.1 mg/dL | TC (24 h): 70.8 mg/dL | TG (24 h): 90 mg/dL | TP (24 h): 5.5 g/dL | gamma-GTP (24 h): 1 IU/L
